Laboratory results as given in patent US20020128320A1, “Method of administering calcium citrate” (UniServices Ltd., priority 2001, published 2002).
Entries after “also recorded” stand apart in the source; their conditions may differ. Like-named read-outs stand apart in the source and are kept apart here.

What was measured:
[1] = 6 weeks; 56 subjects; cited from earlier work
[2] = 193 subjects; cited from earlier work
[3] = Randomized placebo-controlled trial of calcium citrate: body weight; format: in vivo, normal postmenopausal women
Protocol: A randomized controlled trial of calcium supplementation in 223 normal postmenopausal women aged 55 years or older. Women receiving therapy for osteoporosis were ineligible, as were those with any other major ongoing disease, including serum creatine greater than 0.2 mmol/L, untreated hypo- or hyperthyroidism, liver disease, serum 25-hydroxyvitamin D less than 10 μg/L, malignancy or metabolic bone disease. None of the subjects had been regular users of hormone replacement therapy, anabolic steroids, glucocorticoids or bisphosphonates in the previous 1 year. Lumbar spine bone density (Lunar Expert, Madison, Wis.) was not below the age-appropriate normal range. […]
266 subjects were assessed for eligibility for the sub-study, and 223 entered the study, of which 111 women were randomized to calcium and 112 to placebo. […]
Treatments were allocated randomly using a minimization algorithm balancing for current thiazide use, age and the occurrence of fractures resulting from minimal trauma after the age of 40 years. […] Calcium intake and physical activity were assessed using validated questionnaires (Angus et al., 1989; Wilson et al., 1986). Compliance was assessed by tablet counts.
Data were analyzed on an intention-to-treat basis, using a fixed effects mixed models approach to repeated measures using the MIXED procedure of SAS (SAS Institute, Cary, N.C.). […]

[4] = Randomized placebo-controlled trial of calcium citrate: fasting serum lipids; format: in vivo, normal postmenopausal women
Protocol: A randomized controlled trial of calcium supplementation in 223 normal postmenopausal women aged 55 years or older. Women receiving therapy for osteoporosis were ineligible, as were those with any other major ongoing disease, including serum creatine greater than 0.2 mmol/L, untreated hypo- or hyperthyroidism, liver disease, serum 25-hydroxyvitamin D less than 10 μg/L, malignancy or metabolic bone disease. None of the subjects had been regular users of hormone replacement therapy, anabolic steroids, glucocorticoids or bisphosphonates in the previous 1 year. Lumbar spine bone density (Lunar Expert, Madison, Wis.) was not below the age-appropriate normal range. In the present sub-study there was the further requirement that subjects were not receiving therapy for hyperlipidemia.
266 subjects were assessed for eligibility for the sub-study, and 223 entered the study, of which 111 women were randomized to calcium and 112 to placebo. 20 women in the calcium group discontinued study medication as did 26 in the placebo group. […] The study was approved by the local ethics committee, and each subject gave written, informed consent. There were not significant differences between groups.
Treatments were allocated randomly using a minimization algorithm balancing for current thiazide use, age and the occurrence of fractures resulting from minimal trauma after the age of 40 years. Subjects received 1 gram of elemental calcium daily as the citrate (Citracal, Mission Pharmacal, San Antonio Tex.) or identical placebo. They were asked to take two tablets (each containing 200 mg elemental calcium) before breakfast and three tablets in the evening. Calcium intake and physical activity were assessed using validated questionnaires (Angus et al., 1989; Wilson et al., 1986). Compliance was assessed by tablet counts.
Fasting total cholesterol, high-density lipoprotein cholesterol and triglycerides were measured in serum at baseline, 2 months, 6 months, and one year, using a Roche-Hitachi 747 autoanalyzer (Mannherim, Germany). The cholesterol assay used cholesterol oxidase, high-density lipoprotein measurement was by a direct non-precipitation method using PEG-modified enzymes (cholesterol oxidase), and triglycerides were assayed using a glycerol kinase/oxidase method after initial hydrolysis using lipoprotein lipase. Low-density lipoprotein was calculated using the Friedewald formula:
LDL=TC−HDL−(0.45×triglyceride)
Data were analyzed on an intention-to-treat basis, using a fixed effects mixed models approach to repeated measures using the MIXED procedure of SAS (SAS Institute, Cary, N.C.). Significant main and interaction effects were explained using the method of Tukey. In complimentary analyses, the change from baseline for each continuous normal dependant variable was compared between treatment and placebo arms using Student's t-test for independent groups. A 5% significance level was maintained throughout these analyses.

[5] = 13 men, cited from earlier work
[6] = intention-to-treat analysis, 12 months, 1 g elemental calcium daily

## O=C([O-])[O-].[Ca+2] [calcium carbonate]
[1]
  change in total cholesterol: statistically insignificant decrease
[2]
  changes in total cholesterol, high-density lipoprotein level, and blood pressure: statistically insignificant changes

## O=C([O-])CC(O)(CC(=O)[O-])C(=O)[O-].O=C([O-])CC(O)(CC(=O)[O-])C(=O)[O-].[Ca+2].[Ca+2].[Ca+2] [calcium citrate]
[3]; intention-to-treat analysis, 1 g elemental calcium daily
  body weight decrease (mean ±SE): 289 ± 193 g
[3]; versus placebo (P=0.54)
  between-groups effect on body weight: no between-groups effect on body weight
[4]; daily dose about 1 gram elemental calcium
  high-density lipoprotein/low-density lipoprotein ratio increase (summary statement): ~20%
[4]; extrapolated from lipid effects by comparison with statin trial data
  predicted reduction of cardiovascular event rates: 20-30%
[4]; [6]
  high-density lipoprotein/low-density lipoprotein ratio increase: 17.7%
  total cholesterol fall (non-significant): 3.7%
[4]; intention-to-treat analysis, 12 months, 1 g elemental calcium daily, oral
  high-density lipoprotein increase above baseline: 7.3%
[4]; intention-to-treat analysis, 12 months, 1 g elemental calcium daily, LDL calculated by Friedewald formula
  low-density lipoprotein decline: 7.8%
[4]; intention-to-treat analysis, one year, 1 g elemental calcium daily
  ratio of total cholesterol/high-density lipoprotein decline: 9.3%
[4]; intention-to-treat analysis, versus placebo (P=0.48)
  treatment effect on triglycerides: no significant treatment effect
[4]; protocol analysis excluding statin/fibrate users, FIG. 1A, P=0.05
  change in high-density lipoprotein cholesterol versus placebo: increase in high-density lipoprotein; also recorded: significant treatment effects
[4]; protocol analysis excluding statin/fibrate users, FIG. 1B, P=0.04
  change in low-density lipoprotein cholesterol versus placebo: declined; also recorded: significant treatment effects
[4]; protocol analysis excluding statin/fibrate users, FIG. 2A
  change in total cholesterol: did not change significantly
[4]; protocol analysis excluding statin/fibrate users, FIG. 3
  treatment effect on triglycerides: no significant treatment effect
[4]; protocol analysis excluding subjects who commenced a statin or fibrate
  total cholesterol/high-density lipoprotein ratio decrease: 9.6%
[4]; protocol analysis excluding subjects who commenced a statin or fibrate, FIG. 2B
  high-density lipoprotein/low-density lipoprotein ratio increase: 17%

## calcium citrate malate
[5]; food and tablets
  increase in saturated fat excretion: 7%
  low-density lipoprotein levels decrease: 11%
  reduction in plasma cholesterol: 6%
[5]; increased in some subjects and decreased in others
  high-density lipoprotein levels change: insignificant
